# Measurements as given in paper PMC3812073, “Partial Deletion of Chromosome 8 β-defensin Cluster Confers Sperm Dysfunction and Infertility in Male Mice” (PLoS Genetics, 2013).
# No end group written: not given here.
# Key:
# [1] = tested on: wild-type cauda sperm; test: TEM of microtubule structure in tails of A23187-treated wild-type sperm; assay type: cell-based, mouse; conditions: wild-type cauda sperm treated with A23187 (1 µM in the Figure S4 legend), T90 minutes, 101/195 tails in focus, control 3%
# Method: (§1) We treated sperm from wild-type littermates (+/+) with A23187 to release calcium and induce AR, and examined their ultrastructure by TEM at the T90 minutes time point (Figure S4).
# Epididymides and decapsulated testis were fixed with 2% paraformaldehyde (PFA), 2.5% glutaraldehyde in 0.1M sodium cacodylate buffer + 0.04% CaCl2 for 30 mins at room temperature. The tissues were cut roughly into 1 mm cubes and further fixed overnight at 4°C. Fixed cells were rinsed in 0.1M sodium cacodylate buffer + 0.4% CaCl2, post-fixed in 1% osmium tetroxide (OsO4, Agar Scientific) for one hour, and dehydrated in sequential steps of acetone (25%, 50%, 75% and 100% twice) prior to impregnation in increasing concentrations (25%, 50%, 75%) of resin (TAAB Lab Equipment) in acetone followed by 100% resin for 3 times, placed in moulds and polymerised at 60°C for 24 hrs. Ultrathin sections of 70 nm were subsequently cut using a diamond knife on a Leica EM UC7 ultramicrotome. Sections were stretched with chloroform to eliminate compression and mounted on Pioloform filmed copper grids prior to staining with 1% aqueous uranyl acetate and lead citrate (Leica). They were viewed on a Philips CM100 Compustage (FEI) Transmission Electron Microscope with images collected using an AMT CCD camera (Deben). […]
# [2] = tested on: wild-type cauda sperm; test: A23187-induced acrosome reaction of wild-type sperm, Coomassie G250 stain; assay type: cell-based, mouse; conditions: wild-type (+/+) sperm treated with A23187, T90 minutes, 157 of 293 sperm, untreated control 14%
# Method: as §1
# Cauda sperm were isolated in modified Tyrode's medium, fixed in 4% formalin for 15 mins. Sperm were spun down (1000× g 5 mins) then washed once in 0.1 M ammonium acetate (pH 9.0) and resuspended in a final volume of approximately 50 µl. An aliquot of 20 µl was smeared on glass slide, allowed to air dry then stained for 2 mins with a solution of 0.22% Coomassie blue G250 (wt/v) in 50% methanol (v/v) and 10% acetic acid (v/v). Slides were washed 3 times in distilled water, air-dried and mounted in glycerol. Acrosome integrity of at least 150 sperm per animal was assessed by the presence or absence of an intense blue stain on the anterior sperm head (mean ± SD; n = 3 pairs).
# [3] = tested on: sperm; conditions: 10 µM A23187; cited from earlier work
# Source text: We sought to understand why sperm from the DefbΔ9/DefbΔ9 have this precocious capacitation and increased spontaneous AR. Sperm require an increase in intracellular calcium, which causes hyperactivation and allows progression to the AR. Mice deleted for any of the components of the calcium CatSper (cation channels of sperm) channel are infertile due to their lack of ability to transport calcium into the cell, resulting in an inability to undergo capacitation, hyperactivation and prepare sperm for the AR [32]. Conversely, sperm exposed to a ten-fold increase in cauda epididymal calcium concent ...
# [4] = tested on: Pseudomonas aeruginosa O1 (PAO1); test: Antimicrobial killing of Pseudomonas aeruginosa PAO1 by synthetic mature β-defensin peptides; assay type: cell-based; conditions: for bacterial killing after TCEP reduction: reduced peptide (TCEP), 50 µg/ml peptide, PAO1, 3 hours, compared with oxidised form
# Source text: The DefbΔ9/DefbΔ9 mice homozygous for the deletion have no obvious gross phenotype compared to littermate controls after 8 generations of backcrossing to C57Bl/6. No change in size, weight or appearance is apparent, except mice carrying the mutant allele have paler tails by virtue of the Agouti transgene included in the MICER vector (data not shown). β-defensins are classically known as antimicrobial peptides, so we tested the mature peptides in vitro against a Gram-negative bacterium (Pseudomonas aeruginosa, PAO1). […] Despite deleting the expression of these antimicrobials from the homozygous mice, there is no indication that the mutant mice have an increased inflammatory profile under normal animal housing conditions. There is no elevation in levels of TNF-α or IL-6 or type I interferon in sera from mutant versus wild-type mice (Figure 1D).
# Supplementary file pgen.1003826.s003.tif: Figure S3 Level of antimicrobial killing against Pseudomonas aeruginosa O1 (PAO1) by the reduced and oxidized peptides. β-defensins with the mature peptide sequences (as shown in Table 1) were purchased from Almac Sciences (Scotland) Limited in an oxidised form. They were tested for their ability to kill PAO1 in 3 hours at various concentrations of peptide. […] TCEP alone had no effect on bacterial survival (data not shown). […] (TIF) Click here for additional data file.
compound,measurement,setting,value
CNc1ccc2oc(C[C@H]3O[C@@]4(CC[C@H]3C)O[C@H]([C@H](C)C(=O)c3ccc[nH]3)[C@H](C)C[C@H]4C)nc2c1C(=O)O [A23187],sperm with microtubule disruption (abnormal tail score),[1],52%
same,acrosome reacted sperm,[2],53%
same,acrosome reaction,[3],will undergo the AR
same,sperm motility,[3],immotile
"FDEKCSRVNGRCTAS-CLKNEELVALC-QKNLKCCVTVQPCGKSKSNQSDEGSGHMGTWG (disulfide) [Defb15, mature synthetic mouse β-defensin peptide]",bacterial killing after TCEP reduction,[4],unremarkable
"O=C(O)CCP(CCC(=O)O)CCC(=O)O [TCEP, Tris (2-carboxyethyl) phosphine]",effect on bacterial survival,"[4]; TCEP alone, without peptide, data not shown",no effect
"HPGTFHVRIKCMPKMTAVFGDNCSFYSSMGDLCNNTKSVCCMVPVRMDNI (disulfide (positions not given here)) [Defb50, mature synthetic mouse β-defensin peptide, missing the second cysteine of the motif]",antimicrobial activity in either oxidised or reduced form,"[4]; PAO1, Figure S3",active antimicrobials
same,"antimicrobial activity, oxidised form","[4]; oxidised peptide, PAO1, Figure S3",poor antimicrobial activity
same,bacterial killing after TCEP reduction,[4],improves
